≈ marks a conversion by molar mass, not a printed value.
How the values were obtained:
Assay in all cases: Microdilution MIC assay (NCCLS M7-A)
Assay type in all cases: cell-based
[1] = tested on: Klebsiella pneumoniae ATCC 10031; conditions: strain ATCC10031
Procedure: (§1) The antibacterial activity was tested by a microdilution assay according to National Committee for Clinical Laboratory Standards, 1998, Methods for dilution antimicrobial susceptibility tests for bacteria that grow aerobically, Approved standard M7-A, NCCLS, Villanova, Pa.
(§2) The minimal inhibition concentrations (MICs) were determined for the following bacterial strains: The Gram-negative strains Pseudomonas aeruginosa SG 137, ATCC 27853, Escherichia coli ATCC 25922, Klebsiella pneumoniae ATCC 10031, Stenotrophomonas maltophilia GN 12873, Serratia marcescens SG 621 as well as for the Gram-positive strain Staphylococcus aureus SG 511.

[2] = tested on: Serratia marcescens SG 621; conditions: strain SG621
Procedure: as §1, §2

[3] = tested on: Escherichia coli ATCC 25922; conditions: strain ATCC 25922
Procedure: as §1, §2

[4] = tested on: Staphylococcus aureus SG 511; conditions: strain SG511
Procedure: as §1, §2

[5] = tested on: Pseudomonas aeruginosa ATCC 27853; conditions: strain ATCC 27853
Procedure: as §1, §2

[6] = tested on: Pseudomonas aeruginosa SG 137; conditions: strain SG137
Procedure: as §1, §2

[7] = tested on: Stenotrophomonas maltophilia GN 12873; conditions: strain GN12873
Procedure: as §1, §2

For `CC(=O)Oc1cccc(C(=O)NCCCN(CCCN(CC(=O)NC(C(=O)NC2C(=O)N3C2SC(C)(C)C3C(=O)O)c2ccccc2)C(=O)c2cccc(OC(C)=O)c2OC(C)=O)C(=O)c2cccc(OC(C)=O)c2OC(C)=O)c1OC(C)=O` (stereo not shown) [Example 6, N-[3,7,11-Tris-(2,3-diacetoxybenzoyl)-3,7,11-triaza-undecanoyl]-ampicillin], the “MIC Klebsiella pneumoniae ATCC10031” value [1] was 0.1 µg/mL (≈ 0.0847 µM), the “MIC Serratia marc. SG621” value [2] was 0.78 µg/mL (≈ 0.66 µM) and the “MIC E. coli ATCC 25922” value [3] was 1.56 µg/mL (≈ 1.32 µM). For the same compound, the “MIC Staph. aureus SG511” value [4] was 6.25 µg/mL (≈ 5.29 µM), the “MIC Pseudomonas aeruginosa ATCC 27853” value [5] was 1.56 µg/mL (≈ 1.32 µM) and the “MIC Pseudomonas aeruginosa SG137” value [6] was 0.2 µg/mL (≈ 0.169 µM). For the same compound, the “MIC Stenotroph. maltoph. GN12873” value [7] was 0.4 µg/mL (≈ 0.339 µM).

`C[C@@H](O)[C@H]1C(=O)N2C(C(=O)O)=C(S[C@@H]3CN[C@H](C(=O)N(C)C)C3)[C@H](C)[C@H]12` [meropenem, reference compound] gave an MIC ([1]; Klebsiella pneumoniae) of 0.04 µg/mL (≈ 0.104 µM), an MIC ([2]; Serratia marcescens, read-out: MIC Serratia marc. SG621) of 0.06 µg/mL (≈ 0.156 µM) and an MIC ([3]; Escherichia coli, ATCC25922, read-out: MIC E. coli ATCC 25922) of 0.04 µg/mL (≈ 0.104 µM). It also gave an MIC ([4]; Staphylococcus aureus, read-out: MIC Staph. aureus SG511) of 0.1 µg/mL (≈ 0.261 µM), an MIC ([5]; Pseudomonas aeruginosa, ATCC27853) of 0.4 µg/mL (≈ 1.04 µM) and an MIC ([6]; Pseudomonas aeruginosa) of 0.2 µg/mL (≈ 0.522 µM). It also gave an MIC ([7]; Stenotrophomonas maltophilia, read-out: MIC Stenotroph. maltoph. GN12873) of over 100 µg/mL.

`CC(=O)Oc1cccc(C(=O)NCCCN(CCCN(Cc2ccccc2C(=O)N[C@@H](C(=O)N[C@@H]2C(=O)N3[C@@H]2SC(C)(C)[C@@H]3C(=O)O)c2ccccc2)C(=O)c2cccc(OC(C)=O)c2OC(C)=O)C(=O)c2cccc(OC(C)=O)c2OC(C)=O)c1OC(C)=O` [Example 23, N-{2-[2,6,10-Tris-(2,3-diacetoxybenzoyl)-2,6,10-triaza-decyl]-benzoyl}-ampicillin] was tested, and the “MIC Klebsiella pneumoniae ATCC10031” value [1] was 0.78 µg/mL (≈ 0.62 µM), the “MIC Serratia marc. SG621” value [2] was 3.12 µg/mL (≈ 2.48 µM) and the “MIC E. coli ATCC 25922” value [3] was 6.25 µg/mL (≈ 4.97 µM). For the same compound, the “MIC Staph. aureus SG511” value [4] was 12.5 µg/mL (≈ 9.94 µM), the “MIC Pseudomonas aeruginosa ATCC 27853” value [5] was 1.56 µg/mL (≈ 1.24 µM) and the “MIC Pseudomonas aeruginosa SG137” value [6] was 0.78 µg/mL (≈ 0.62 µM). For the same compound, the “MIC Stenotroph. maltoph. GN12873” value [7] was 0.2 µg/mL (≈ 0.159 µM).

In the case of `CC(=O)Oc1cccc(C(=O)NCCCCN(Cc2ccccc2C(=O)NC(C(=O)NC2C(=O)N3C2SC(C)(C)C3C(=O)O)c2ccccc2)C(=O)c2cccc(OC(C)=O)c2OC(C)=O)c1OC(C)=O` (stereo not shown) [Example 18, N-{2-[2,7-Bis-(2,3-diacetoxybenzoyl)-2,7-diaza-heptyl]-benzooyl}-ampicillin], the “MIC Klebsiella pneumoniae ATCC10031” value [1] is reported as under 0.05 µg/mL, the “MIC Serratia marc. SG621” value [2] is reported as 0.24 µg/mL (≈ 0.241 µM) and the “MIC E. coli ATCC 25922” value [3] is reported as 0.4 µg/mL (≈ 0.402 µM). The “MIC Staph. aureus SG511” value [4] was 6.25 µg/mL (≈ 6.29 µM), the “MIC Pseudomonas aeruginosa ATCC 27853” value [5] was 0.2 µg/mL (≈ 0.201 µM) and the “MIC Pseudomonas aeruginosa SG137” value [6] was 0.04 µg/mL (≈ 0.0402 µM). The “MIC Stenotroph. maltoph. GN12873” value [7] was under 0.05 µg/mL.

Reference: US20040132707A1, “Catecholate beta-lactam conjugates, method for producing the same and the use thereof” (Gruenenthal GmbH, priority 2001, published 2004)
